Measurements: patent US5523308A, “Peptidyl heterocycles useful in the treatment of thrombin related disorders” (priority 1995, dated 1996)
Read-outs that look alike come from different tables or passages of the source.

How the values were obtained:
[1] = Ex vivo i.v. assay for duration of action: time to half plasma elimination from thrombin inhibition in rat plasma; conditions: male Long Evans rats, i.v. via femoral vein, from slope of Vo vs. time
Procedure: (§1) An ex vivo assay was conducted to determine the duration of action of the compounds of Formula I. For this i.v. assay male rats (Long Evans, 350-500 g) were implanted with a teflon cannulae via the femoral artery while under anesthesia (pentobarbital i.p., 35 mg/kg). […] The animals were allowed to recover for at least 24 h after the surgical procedure.
(§2) The test compound was dispersed in water and delivered to the animal (0.25 mL) via the femoral vein. […] A plasma sample was obtained by centrifuging the blood at 10,000 rpm for 5 min. This sample is analyzed for thrombin inhibition using the chromogenic assay, described below.
(§3) Datum was collected over a 30 min period and the initial rate of substrate hydrolysis (V0 (mOD/min)) was calculated with an analysis program (Softmax, Molecular Devices).
(§4) The time to half plasma elimination (t 1/2) was calculated from the slope of Vo vs. time, using the following equation: t 1/2=-1.6 slope.

Bovine type 1 trypsin = molecular target: T1, Bovine type 1 trypsin (Bos taurus, UniProt P00760); assay: Trypsin-catalyzed hydrolysis of chromogenic substrate Spectrozyme TRY (in vitro enzyme assay); format: biochemical; conditions: 3.2 U/ml trypsin, 0.1-0.3 mM Spectrozyme TRY; read-out: Trp IC50
T1 construct: purchased Sigma
T1 sequence (P00760 24-246): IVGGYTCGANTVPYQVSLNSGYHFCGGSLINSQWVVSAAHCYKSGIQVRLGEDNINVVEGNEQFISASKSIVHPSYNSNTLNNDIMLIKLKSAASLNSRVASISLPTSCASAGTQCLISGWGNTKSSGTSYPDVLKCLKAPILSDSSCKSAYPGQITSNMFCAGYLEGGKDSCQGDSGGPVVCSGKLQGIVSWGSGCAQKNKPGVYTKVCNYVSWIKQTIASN
Procedure: The compounds of the invention were tested for their ability to inhibit thrombin mediated hydrolysis. An in vitro enzyme assay was performed as well as an ex vivo assay. In addition, the compounds were tested in vitro for their ability to inhibit trypsin, as an indication of their selectivity.
Trypsin-catalyzed hydrolysis rates were measured using the same method as the thrombin procedure.
The compound numbers in the table correspond to the examples described hereinafter.

human alpha-thrombin = molecular target: T2, human alpha-thrombin (Homo sapiens, UniProt P00734); assay: Thrombin-catalyzed hydrolysis of chromogenic substrate Spectozyme TH (in vitro enzyme assay); format: biochemical; conditions: 1 nM thrombin, 37° C., pH 7.4; for IC50: 50 μM Spectozyme TH, read-out: Thr IC50
T2 construct: commercial human alpha-thrombin (American Diagnostica); purchased American Diagnostica
Procedure: Thrombin-catalyzed hydrolysis rates were measured spectrophotometrically using commercial human alpha-thrombin (American Diagnostica), a chromogenic substrate (Spectozyme® TH (H-D-HHT-Ala-Arg-pNA.2AcOH), American Diagnostica) in aqueous buffer (10 mM Tris, 10 mM Hepes, 150 mM NaCl, 0.1% PEG; pH 7.4), and a microplate reader (Molecular Devices). Changes in absorbance at 405 nm were monitored (Softmax, Molecular Devices), upon addition of enzyme, both with and without inhibitor present at 37° C. over 30 minutes. […] Michaelis-Menton kinetics were applied to the initial reaction slopes. […] Michaelis-Menton kinetics were applied to the initial reaction slopes using the program K.Cat (Bio Metallics Inc.).

[2] = Ex vivo bioavailability assay, i.v. and p.o. dosing, thrombin inhibition in rat plasma; conditions: male rats, p.o. vs i.v., extrapolated drug in plasma vs. time
Procedure: Bioavailability was determined by an ex vivo assay which incorporated hydrolysis rates from drug administered both i.v. and p.o. In this assay male rats were prepared as described above with a teflon tube implanted in their femoral artery. […] The test compound was dispersed in water (0.3-3.0 mg/mL final conc.) and delivered to the animals (0.25 mL) either i.v. or p.o..
A standard curve was generated by adding of drug or vehicle (100 μL) to whole blood (900 μL) followed by incubating (5 min) and centrifuging to obtain plasma. The percentage of thrombin inhibition was calculated by comparing the V0 of the vehicle to that of the drug treated samples. Datum from several runs were normalized with a statistical package (SAS) to generate a standard curve.
The percentage of thrombin inhibition in the treated animals was calculated by comparing the V0 prior to treatment with the V0 obtained from samples collected after treatment. The percent inhibition was applied to the standard curve (generated above) using the statistical package (SAS) and the quantity of drug in the sample was extrapolated.
Bioavailability (Bioavail.) was calculated from the plots of the extrapolated drug in sample vs. time for both i.v. and p.o. administration using the following equation:
%Bioavail. =(i.v. dose administered/p.o. dose administered)×(area under p.o. curve/area under curve i.v.)

[3] = rat, in vivo, iv
Procedure: as §1, §2, §3, §4

trypsin = conditions: pancreatic agents quoted for comparison; read-out: IC50 (trypsin inhibitors used clinically); cited from earlier work

Compound	IC50 (Bovine type 1 trypsin) [nM]	t1/2 (time to half plasma elimination) [3] [min]	IC50 (human alpha-thrombin) [nM]	other results
CNC(C(=O)N1CCC[C@H]1C(=O)N[C@@H](CCCNC(=N)N)C(=O)c1nc2ccccc2s1)c1ccccc1 (single isomer, unassigned) [Compound 34]	3			t1/2 (time to half plasma elimination) [1]: 26 min
CN[C@H](Cc1ccccc1)C(=O)N1CCC[C@H]1C(=O)N[C@@H](CCCNC(=N)N)C(=O)c1nc2ccccc2s1 [Compound 1, N-METHYL-D-PHENYLALANYL-N-[4-[(AMINOIMINOMETHYL)AMINO]-1S-[(BENXOTHIAZOL-2- YL)CARBONYL]BUTYL]-L-PROLINAMIDE]		19		Ki (human alpha-thrombin; 5-100 μM Spectozyme TH, read-out: Thr Ki (listed in place of the IC50)): 0.23 nM; Bioavail, [2]: 1.2%
CNC(Cc1ccccc1)C(=O)N1CCCC1C(=O)NC(CCCNC(=N)N)C(=O)c1nccs1 (stereo not drawn) [Compound 4]	6	16	19	
CCOC(=O)c1csc(C(=O)[C@H](CCCNC(=N)N)NC(=O)[C@@H]2CCCN2C(=O)[C@@H](Cc2ccccc2)NC)n1 [Compound 19, N-METHYL-D-PHENYLALANYL-N-[4-[(AMINOIMINOMETHYL)AMINO]-1S-[(4-ETHOXYCARBONY LTHIAZOL-2-YL)CARBONYL]BUTYL]-L-PROLINAMIDE]	5	14	26	
CNC(Cc1ccccc1)C(=O)N1CCCC1C(=O)NC(CCCNC(=N)N)C(=O)c1nc2ccccc2[nH]1 (stereo not drawn) [Compound 21]	51	5	24	
CN[C@H](Cc1ccccc1)C(=O)N1CCC[C@H]1C(=O)N[C@@H](CCCNC(=N)N)C(=O)c1nc2ccc(O)cc2s1 [Compound 25, N-METHYL-D-PHENYLALANYL-N-[4-[(AMINOIMINOMETHYL)AMINO]-1S-[(6-HYDROXYBENXOT HIAZOL-2-YL)CARBONYL]BUTYL]-L-PROLINAMIDE]				t1/2 (time to half plasma elimination) [1]: 14 min
CN[C@H](Cc1c(F)c(F)c(F)c(F)c1F)C(=O)N1CCC[C@H]1C(=O)N[C@@H](CCCNC(=N)N)C(=O)c1nc2ccccc2s1 [Compound 30]	2	6	29	
CC(=O)N[C@H](Cc1ccccc1)C(=O)N1CCC[C@H]1C(=O)N[C@@H](CCCNC(=N)N)C(=O)c1nc2ccccc2s1.O=C(O)C(F)(F)F [Compound 35]	2	11	201	
CN[C@@H](C(=O)N1CCC[C@H]1C(=O)N[C@@H](CCCNC(=N)N)C(=O)c1nc2ccccc2s1)C1CCCCC1 [Compound 37, N-METHYL-D-CYCLOHEXYLGLYCYL-N-[4-[(AMINOIMINOMETHYL)AMINO]-1S-[(BENXOTHIAZO L-2-YL)CARBONYL]BUTYL]-L-PROLINAMIDE]	1	42		
CN[C@H](Cc1ccccc1)C(=O)N1CCC[C@H]1C(=O)N[C@@H](CCCNC(=N)N)C(=O)c1nc2c(s1)CCCC2 [Compound 51, N-METHYL-D-PHENYLALANYL-N-[4-[(AMINOIMINOMETHYL)AMINO]-1S-[(4,5,6,7-TETRAHY DROBENZOTHIAZOL-2-YL)CARBONYL]BUTYL]-L-PROLINAMIDE]	7	17	17	
CN[C@H](Cc1ccccc1)C(=O)N1CCC[C@H]1C(=O)N[C@@H](CCCNC(=N)N)C(=O)c1nc2ccc3ccccc3c2s1 [Compound 52, N-METHYL-D-PHENYLALANYL-N-[4-[(AMINOIMINOMETHYL)AMINO]-1S-[(NAPTHO[2,1-D]TH IAZOL-2-YL)CARBONYL]BUTYL]-L-PROLINAMIDE]	5	8		
CN[C@H](Cc1ccccc1)C(=O)N1CCC[C@H]1C(=O)N[C@@H](CCCNC(=N)N)C(=O)c1nc(C(=O)O)cs1 [Compound 54, N-METHYL-D-PHENYLALANYL-N-[4-[(AMINOIMINOMETHYL)AMINO]-1S-[(4-CARBOXYTHIAZO L-2-YL)CARBONYL]BUTYL]-L-PROLINAMIDE]	13	15	110	
CN(C)C(=O)COC(=O)Cc1ccc(OC(=O)c2ccc(NC(=N)N)cc2)cc1 [camostat mesilate]				IC50 (trypsin): 10 nM
N=C(N)c1ccc2cc(OC(=O)c3ccc(N=C(N)N)cc3)ccc2c1 [nafamostat]				IC50 (trypsin): 13 nM
